Results published in patent publication US20230045902A1, “COMPOSITION FOR REINFORCING FUNCTION OF STEM CELL” (SCM LIFE SCIENCE CO., LTD., priority 2020, published 2023).

Legend:
Assay type in all cases: cell-based
IFN-γ = IFN-γ secretion in PHA-activated T-cells co-cultured with treated mesenchymal stem cells (IFN-γ kit); conditions: MSC treated 24 hours (Table 1 concentrations), co-cultured 3 days with PHA-activated T-cells; FIG. 3
Description: As a control group, mesenchymal stem cells that were not treated with the test substance were used.

[1] = tested on: Inducible costimulatory ligand (ICOSL); assay: ICOSL expression change in mesenchymal stem cells by qRT-PCR; conditions: MSC treated 24 hours, Table 1 concentrations; FIG. 4
Procedure: Inducible costimulatory ligand (ICOSL) is known to inhibit activated T cells by inducing regulatory T cells. Since the function-enhancing effect of the mesenchymal stem cells according to the treatment with the experimental group was confirmed in Example 1.1, an experiment was performed to additionally confirm whether the treatment with the experimental group induces inflammation and immune regulation ability of the mesenchymal stem cells. After culturing stem cells as in Experimental Example 1, total RNA was isolated using TRIzol (Invitrogen), and then cDNA was synthesized from total RNA using PrimeScript™ reagent Kit with gDNA Eraser (TaKaRa) and qRT-PCR was performed. Through this, the expression change of ICOSL, which is a representative factor of inflammation and immune regulation, was confirmed, and the results are shown in FIG. 4.

Galectin 1 = Galectin 1 expression change in mesenchymal stem cells by qRT-PCR; conditions: MSC treated 24 hours, Table 1 concentrations; FIG. 5
Description: 1.3. Confirmation of Change in Galectin 1 Expression According to the Treatment with the Experimental Group Galectin 1 is known as a stem cell potency marker closely related to the high efficacy of stem cells, and it is known that the more the expression increases, the stronger the stem cell function and efficacy. Therefore, in order to further confirm whether the treatment with the experimental group induces the inflammation and immune regulation ability of the mesenchymal stem cells, an experiment was performed to confirm the expression of Galectin 1. After culturing stem cells as in Experimental Example 1, total RNA was isolated using TRIzol (Invitrogen), and then cDNA was synthesized from total RNA using PrimeScript™ reagent Kit with gDNA Eraser (TaKaRa) and qRT-PCR was performed. Using this, a change in the expression of Galectin 1, an indicator of stem cell efficacy, was confirmed, and the result is shown in FIG. 5.

TSG6 and IDO = assay: Concentration setting of IL-1β in MSC by expression of TSG6 and IDO; conditions: treated in MSC
Procedure: IL-1β, IFN-α and vitamin B6 were selected as candidate substances, and concentrations for function-enhancing were set. When IL-1β was treated in MSC, it was confirmed that the lowest effective concentration capable of increasing the expression of TSG6 and IDO was 20 ng/ml, and this was set as the standard.

[2] = tested on: indoleamine 2,3-dioxygenase (IDO); assay: IDO expression change in mesenchymal stem cells by qRT-PCR; conditions: MSC treated 24 hours, Table 1 concentrations; FIG. 6
Procedure: At 37° C. and 5% CO2 incubator, mesenchymal stem cells in storage state (stored in LN2 tank) were thawed and cultured. At this time, they were cultured in a medium (DMEM, alpha-MEM) containing 10% FBS or 4% hPL. Cells were cultured until confluence reached about 80%. After seeding the cultured mesenchymal stem cells in a 100 mm dish, a candidate material for enhancing the mesenchymal stem cell function was selected.
The selected 20 ng/ml of IL-1β and vitamin B6 and IFN-α at different concentrations were combined, and the effect was confirmed by the change in indoleamine 2,3-dioxygenase (IDO) expression. IDO is known as an immunomodulatory factor that suppresses the proliferation of immune cells such as T cells by changing tryptophan, which is essential for T cell proliferation, into kynurenine. After culturing stem cells, total RNA was isolated using TRIzol (Invitrogen), and cDNA was synthesized from total RNA using PrimeScript™ reagent Kit with gDNA Eraser (TaKaRa), followed by qRT-PCR.
The selected candidate substances and their concentration combinations are shown in Table 1, and they were treated to mesenchymal stem cells for 24 hours, and the function-enhancing effect was confirmed. […]

Compound | change in IFN-γ secretion compared to the untreated control group (IFN-γ) | expression of ICOSL [1] | expression of Galectin 1 (Galectin 1) | lowest effective concentration capable of increasing the expression of TSG6 and IDO (TSG6 and IDO) | IDO expression change [2]
Interleukin 1 beta (IL-1β) | not significant | increased | increased | 20 ng/mL | did not show a distinct expression change
interferon alpha (IFN-α) | not significant | did not show a distinct increase |  |  | 
Cc1ncc(CO)c(CO)c1O.Cl [vitamin B6] | not significant | did not show a distinct increase | did not show a distinct increase |  | did not show a distinct expression change
